Calls of active or inactive are those of the source.
Legend:
Staphylococcus aureus [1] = test: Ratio of MBC to MIC for methicillin-resistant Staphylococcus aureus ATCC BAA41; type: functional
[2] = tested on: Staphylococcus epidermidis; test: Potency index, ratio of berberine MIC to test compound MIC for Staphylococcus epidermidis ATCC 12228; type: functional
Staphylococcus aureus [3] = test: Antibacterial activity against methicillin-resistant Staphylococcus aureus isolate 7960 after 18 hrs by broth microdilution method; type: functional; details: isolate 7960, 18 h
Staphylococcus aureus [4] = test: Antibacterial activity against methicillin-resistant Staphylococcus aureus isolate 4023 after 18 hrs by broth microdilution method; type: functional; details: isolate 4023, 18 h
Staphylococcus aureus [5] = test: Antibacterial activity against methicillin-resistant Staphylococcus aureus isolate 7943 after 18 hrs by broth microdilution method; type: functional; details: isolate 7943, 18 h
Staphylococcus aureus [6] = test: Antibacterial activity against methicillin-resistant Staphylococcus aureus isolate 7807 after 18 hrs by broth microdilution method; type: functional; details: isolate 7807, 18 h
Staphylococcus aureus [7] = test: Antibacterial activity against methicillin-resistant Staphylococcus aureus isolate 5426 after 18 hrs by broth microdilution method; type: functional; details: isolate 5426, 18 h
Staphylococcus aureus [8] = test: Bactericidal activity against methicillin-resistant Staphylococcus aureus ATCC BAA41 after 18 hrs by broth microdilution method; type: functional; details: ATCC BAA41, 18 h
Escherichia coli = test: Antibacterial activity against Escherichia coli ATCC 25922 after 18 hrs by broth microdilution method; type: functional; details: ATCC 25922, 18 h
Staphylococcus aureus [9] = test: Antibacterial activity against methicillin-resistant Staphylococcus aureus isolate 7813 after 18 hrs by broth microdilution method; type: functional; details: isolate 7813, 18 h
Staphylococcus aureus [10] = test: Antibacterial activity against methicillin-resistant Staphylococcus aureus isolate 8162 after 18 hrs by broth microdilution method; type: functional; details: isolate 8162, 18 h
Staphylococcus aureus [11] = test: Antibacterial activity against methicillin-resistant Staphylococcus aureus isolate 7247 after 18 hrs by broth microdilution method; type: functional; details: isolate 7247, 18 h
Staphylococcus aureus [12] = test: Antibacterial activity against methicillin-resistant Staphylococcus aureus isolate 7449 after 18 hrs by broth microdilution method; type: functional; details: isolate 7449, 18 h
Enterococcus faecium = test: Antibacterial activity against Enterococcus faecium ATCC 49624 after 18 hrs by broth microdilution method; type: functional; details: ATCC 49624, 18 h
Staphylococcus aureus [13] = test: Antibacterial activity against methicillin-resistant Staphylococcus aureus isolate 4548 after 18 hrs by broth microdilution method; type: functional; details: isolate 4548, 18 h
[14] = molecular target: T1, Cell division protein FtsZ (Staphylococcus aureus) (UniProt P0A031); test: Inhibition of recombinant Staphylococcus aureus FtsZ polymerization at 8 ug/ml by 90 degree light scattering-based fluorescence spectrometric analysis
T1 sequence (whole entry): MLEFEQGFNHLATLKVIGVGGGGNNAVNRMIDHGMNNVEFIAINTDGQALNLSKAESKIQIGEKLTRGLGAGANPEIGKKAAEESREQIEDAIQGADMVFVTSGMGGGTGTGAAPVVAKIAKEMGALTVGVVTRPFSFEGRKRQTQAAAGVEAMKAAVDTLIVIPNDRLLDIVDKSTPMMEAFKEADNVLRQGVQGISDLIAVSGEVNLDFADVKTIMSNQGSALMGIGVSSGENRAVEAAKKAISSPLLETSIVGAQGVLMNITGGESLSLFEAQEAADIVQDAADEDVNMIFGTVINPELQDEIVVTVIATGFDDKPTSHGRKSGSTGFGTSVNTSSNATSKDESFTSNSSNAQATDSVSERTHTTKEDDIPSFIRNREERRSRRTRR

Staphylococcus aureus [15] = test: Antibacterial activity against methicillin-resistant Staphylococcus aureus isolate 4127 after 18 hrs by broth microdilution method; type: functional; details: isolate 4127, 18 h
Staphylococcus aureus [16] = test: Antibacterial activity against methicillin-resistant Staphylococcus aureus isolate 1428 after 18 hrs by broth microdilution method; type: functional; details: isolate 1428, 18 h
Staphylococcus aureus [17] = test: Antibacterial activity against methicillin-resistant Staphylococcus aureus isolate 7587 after 18 hrs by broth microdilution method; type: functional; details: isolate 7587, 18 h
Staphylococcus aureus [18] = test: Antibacterial activity against methicillin-resistant Staphylococcus aureus isolate 1947 after 18 hrs by broth microdilution method; type: functional; details: isolate 1947, 18 h
Staphylococcus aureus [19] = test: Antibacterial activity against methicillin-resistant Staphylococcus aureus isolate 7183 after 18 hrs by broth microdilution method; type: functional; details: isolate 7183, 18 h
Staphylococcus aureus [20] = test: Antibacterial activity against methicillin-resistant Staphylococcus aureus isolate 2158 after 18 hrs by broth microdilution method; type: functional; details: isolate 2158, 18 h
Enterococcus faecalis [21] = test: Ratio of MBC to MIC for vancomycin-resistant Enterococcus faecalis ATCC 700221; type: functional
Staphylococcus aureus [22] = test: Antibacterial activity against methicillin-resistant Staphylococcus aureus isolate 7971 after 18 hrs by broth microdilution method; type: functional; details: isolate 7971, 18 h
Staphylococcus aureus [23] = test: Antibacterial activity against Staphylococcus aureus ATCC 29213 after 18 hrs by broth microdilution method; type: functional; details: ATCC 29213, 18 h
Staphylococcus aureus [24] = test: Antibacterial activity against methicillin-resistant Staphylococcus aureus ATCC 33591 after 18 hrs by broth microdilution method; type: functional; details: ATCC 33591, 18 h
Staphylococcus aureus [25] = test: Antibacterial activity against methicillin-resistant Staphylococcus aureus isolate 7664 after 18 hrs by broth microdilution method; type: functional; details: isolate 7664, 18 h
Staphylococcus aureus [26] = test: Antibacterial activity against methicillin-resistant Staphylococcus aureus isolate 2350 after 18 hrs by broth microdilution method; type: functional; details: isolate 2350, 18 h
Staphylococcus aureus [27] = test: Potency index, ratio of methicillin MIC to test compound MIC for methicillin-resistant Staphylococcus aureus ATCC 43300; type: functional
Staphylococcus aureus [28] = test: Antibacterial activity against methicillin-resistant Staphylococcus aureus isolate 8078 after 18 hrs by broth microdilution method; type: functional; details: isolate 8078, 18 h
Staphylococcus aureus [29] = test: Potency index, ratio of methicillin MIC to test compound MIC for methicillin-resistant Staphylococcus aureus ATCC 33592; type: functional
Staphylococcus aureus [30] = test: Antibacterial activity against methicillin-resistant Staphylococcus aureus isolate 7917 after 18 hrs by broth microdilution method; type: functional; details: isolate 7917, 18 h
Enterococcus faecalis [31] = test: Potency index, ratio of berberine MIC to test compound MIC for Enterococcus faecalis ATCC 29212; type: functional
Staphylococcus aureus [32] = test: Antibacterial activity against methicillin-resistant Staphylococcus aureus isolate 3123 after 18 hrs by broth microdilution method; type: functional; details: isolate 3123, 18 h
Staphylococcus aureus [33] = test: Antibacterial activity against methicillin-resistant Staphylococcus aureus isolate 2671 after 18 hrs by broth microdilution method; type: functional; details: isolate 2671, 18 h
Enterococcus faecalis [34] = test: Antibacterial activity against vancomycin-resistant Enterococcus faecalis ATCC 51575 after 18 hrs by broth microdilution method; type: functional; details: ATCC 51575, 18 h
Staphylococcus aureus [35] = test: Antibacterial activity against methicillin-resistant Staphylococcus aureus isolate 7864 after 18 hrs by broth microdilution method; type: functional; details: isolate 7864, 18 h
Staphylococcus aureus [36] = test: Antibacterial activity against methicillin-resistant Staphylococcus aureus isolate 5239 after 18 hrs by broth microdilution method; type: functional; details: isolate 5239, 18 h
Staphylococcus aureus [37] = test: Antibacterial activity against methicillin-resistant Staphylococcus aureus isolate 5035 after 18 hrs by broth microdilution method; type: functional; details: isolate 5035, 18 h
Staphylococcus aureus [38] = test: Antibacterial activity against methicillin-resistant Staphylococcus aureus isolate 7717 after 18 hrs by broth microdilution method; type: functional; details: isolate 7717, 18 h
Staphylococcus aureus [39] = test: Antibacterial activity against methicillin-resistant Staphylococcus aureus isolate 2931 after 18 hrs by broth microdilution method; type: functional; details: isolate 2931, 18 h

CC(C)c1ccc(CN2CCCN(CCc3cc(-c4cccs4)nc(-c4ccncc4)n3)CC2)cc1
>100: Ratio (Staphylococcus aureus [27]) | Ratio (Staphylococcus aureus [29])
active: inhibition [14]
128 µg/mL: MIC90 (Escherichia coli)
2: Ratio (Enterococcus faecalis [21])
50 - 100: Ratio [2] | Ratio (Enterococcus faecalis [31])
2 µg/mL: MIC90 (Staphylococcus aureus [3]) | MIC90 (Staphylococcus aureus [4]) | MIC90 (Staphylococcus aureus [5]) | MIC90 (Staphylococcus aureus [6]) | MIC90 (Staphylococcus aureus [7]) | MBC (Staphylococcus aureus [8]) | MIC90 (Staphylococcus aureus [9]) | MIC90 (Staphylococcus aureus [10]) | MIC90 (Staphylococcus aureus [11]) | MIC90 (Staphylococcus aureus [12]) | MIC90 (Enterococcus faecium) | MIC90 (Staphylococcus aureus [13]) | MIC90 (Staphylococcus aureus [15]) | MIC90 (Staphylococcus aureus [16]) | MIC90 (Staphylococcus aureus [17]) | MIC90 (Staphylococcus aureus [18]) | MIC90 (Staphylococcus aureus [19]) | MIC90 (Staphylococcus aureus [20]) | MIC90 (Staphylococcus aureus [22]) | MIC90 (Staphylococcus aureus [23]) | MIC90 (Staphylococcus aureus [24]) | MIC90 (Staphylococcus aureus [25]) | MIC90 (Staphylococcus aureus [26]) | MIC90 (Staphylococcus aureus [28]) | MIC90 (Staphylococcus aureus [30]) | MIC90 (Staphylococcus aureus [32]) | MIC90 (Staphylococcus aureus [33]) | MIC90 (Enterococcus faecalis [34]) | MIC90 (Staphylococcus aureus [35]) | MIC90 (Staphylococcus aureus [36]) | MIC90 (Staphylococcus aureus [37]) | MIC90 (Staphylococcus aureus [38]) | MIC90 (Staphylococcus aureus [39])
1: Ratio (Staphylococcus aureus [1])
